Calls of active or inactive are those of the source.

The target in assay [1] is T1, Streptokinase A (Streptococcus pyogenes serotype M1, UniProt P10520).
T1 sequence (P10520 whole entry): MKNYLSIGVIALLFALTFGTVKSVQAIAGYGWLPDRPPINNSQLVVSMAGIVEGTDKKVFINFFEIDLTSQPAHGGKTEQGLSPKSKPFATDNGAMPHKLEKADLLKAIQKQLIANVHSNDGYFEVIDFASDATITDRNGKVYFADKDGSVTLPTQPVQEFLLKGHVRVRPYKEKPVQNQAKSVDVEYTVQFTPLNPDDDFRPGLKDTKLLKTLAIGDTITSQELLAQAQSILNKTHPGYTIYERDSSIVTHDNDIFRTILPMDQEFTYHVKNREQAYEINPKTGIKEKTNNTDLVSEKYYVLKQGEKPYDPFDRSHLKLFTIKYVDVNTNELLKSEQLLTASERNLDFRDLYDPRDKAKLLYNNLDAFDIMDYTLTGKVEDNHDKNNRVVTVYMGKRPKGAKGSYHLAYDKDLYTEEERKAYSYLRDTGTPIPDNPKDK
Put plainly: S. pyogenes streptokinase expression inhibitors, potency, dose response, plasminogen activation absorbance, OD405 (AID 1914).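 Also: secreted streptokinase activity via plasminogen activation per viability signal from cell pellet.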 It is filed as functional, Streptococcus pyogenes M1 GAS.

The subject of assay [2] is Streptococcus. The experiment in a line: Luminescence Microorganism-Based Dose Response Follow up to Identify Compounds Cytotoxic to Streptococcus. [Related pubchem assays: 1677 (Project Summary), 1915, 1914, 1902 (Retest at Dose), 1900 (Counter Screen), 1662 (Primary HTS)]. Format: functional, organism-based. On the technique in general: A counterscreen serves to expose hits that act by an unwanted route or on another target.

In assay [3] the test system is Streptococcus. Put plainly: Group A Streptococcus viability loss, dose response, counter-screen for streptokinase expression inhibitor project, luminescence, BacTiterGlo (AID 1915).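 Also: potency for reduction of bacterial viability or growth.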 Format: functional, organism-based.
The subject of assay [4] is Streptococcus sp. 'group A'. The experiment in a line: growth inhibition of control SK(-) GAS strain, dose response, counter-screen for streptokinase expression inhibitor project, luminescence, kanamycin, BacTiterGlo, confirmation (AID 1900). It is filed as functional, organism-based.
For assay [5], the target named is T2, Protein skinhead-1 (Caenorhabditis elegans, UniProt P34707).
T2 sequence (P34707 whole entry): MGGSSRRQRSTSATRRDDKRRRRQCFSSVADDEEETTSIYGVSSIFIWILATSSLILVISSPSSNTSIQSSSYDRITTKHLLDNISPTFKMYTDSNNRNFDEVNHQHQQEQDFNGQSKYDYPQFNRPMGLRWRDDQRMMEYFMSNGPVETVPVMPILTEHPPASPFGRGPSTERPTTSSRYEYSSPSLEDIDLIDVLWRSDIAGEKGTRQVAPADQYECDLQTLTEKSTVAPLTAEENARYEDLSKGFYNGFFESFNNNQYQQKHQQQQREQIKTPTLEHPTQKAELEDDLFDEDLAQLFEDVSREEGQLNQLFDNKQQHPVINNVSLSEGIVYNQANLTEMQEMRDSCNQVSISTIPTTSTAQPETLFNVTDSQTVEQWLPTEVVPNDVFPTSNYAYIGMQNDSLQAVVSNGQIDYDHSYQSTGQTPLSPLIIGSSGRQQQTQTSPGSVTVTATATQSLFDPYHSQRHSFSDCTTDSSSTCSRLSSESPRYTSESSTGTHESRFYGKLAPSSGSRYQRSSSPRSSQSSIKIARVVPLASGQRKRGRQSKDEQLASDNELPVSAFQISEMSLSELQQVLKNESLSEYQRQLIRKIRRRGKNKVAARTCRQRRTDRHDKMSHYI
It is filed as functional.

The nature of assay [6]: Luminescence Cell-Based Dose Confirmation HTS to Identify Inhibitors of Platelet Dense Granule Release. [Related pubchem assays: 1663 (Primary HTS), 1678 (Summary of Project)]. Format: functional.
Assay [7] addresses T3, Luciferin 4-monooxygenase (Photinus pyralis, UniProt P08659). The experiment in a line: firefly luciferase enzyme inhibitors, dose response, biochemical, luminescence (AID 1891).
Assay [8] concerns HT-1080. The experiment in a line: cytotoxicity in HT1080 fibrosarcoma cells, cell-based, fluorescence readout (AID 620). Particulars: Homo sapiens. It is filed as functional.
For assay [9], the target named is T3, Luciferin 4-monooxygenase. The experiment in a line: Counter Screen for Luciferase-based Assay Positives. [Related pubchem assays: 620, 618, 411 ].
Assay [10] deals with Cytochrome P450 2C9 (Homo sapiens, UniProt P11712). The following applies: Potency.
Sequence of Cytochrome P450 2C9 (P11712 whole entry): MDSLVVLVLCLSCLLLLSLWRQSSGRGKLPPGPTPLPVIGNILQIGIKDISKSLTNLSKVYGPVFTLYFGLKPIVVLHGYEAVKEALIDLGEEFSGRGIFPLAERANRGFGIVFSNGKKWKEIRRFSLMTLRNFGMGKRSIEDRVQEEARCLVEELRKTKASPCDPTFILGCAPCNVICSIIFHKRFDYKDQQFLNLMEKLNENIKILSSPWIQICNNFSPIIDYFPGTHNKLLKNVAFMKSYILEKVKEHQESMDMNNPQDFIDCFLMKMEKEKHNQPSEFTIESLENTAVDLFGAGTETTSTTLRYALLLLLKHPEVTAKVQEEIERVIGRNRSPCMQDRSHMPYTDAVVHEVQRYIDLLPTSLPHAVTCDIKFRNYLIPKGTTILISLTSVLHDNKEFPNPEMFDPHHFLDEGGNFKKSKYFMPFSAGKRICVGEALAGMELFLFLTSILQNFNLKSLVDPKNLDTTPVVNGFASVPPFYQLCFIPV
The target of assay [11] is Interleukin-8 (Homo sapiens, UniProt P10145). Put plainly: SAR analysis of tumor necrosis factor alpha (TNF-alpha) induced IL-8 secretion in MCF-7/NOD1 cells. [Related pubchem assays (depositor defined):AID1575, AID2250, AID2260]. It is filed as functional, cell-based.
Sequence of Interleukin-8 (P10145 whole entry): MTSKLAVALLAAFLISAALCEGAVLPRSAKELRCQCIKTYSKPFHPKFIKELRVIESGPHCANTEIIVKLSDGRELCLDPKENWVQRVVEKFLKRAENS
In assay [12] the test system is HEK293. Put plainly: SAR analysis of compounds that are cytotoxic to HEK293 - Set 3. [Related pubchem assays (depositor defined):AID1575, AID1578, AID1848, AID1849, AID2001, AID2333, AID2334, AID2335, AID2337, AID2469]. It is filed as functional, cell-based. The following applies: Homo sapiens.
Assay [13] concerns the target Tumor necrosis factor (Homo sapiens, UniProt P01375). The experiment in a line: TNFa-triggered NF-kB activation inhibitors, SAR follow-up, cell-based, revised (AID 2337). Format: functional.
Assay [14] has as its system HEK293. Put plainly: cells. The following applies: Homo sapiens.
Assay [15] concerns the target Mothers against decapentaplegic homolog 3 (Homo sapiens, UniProt P84022). Put plainly: Smad3 binding inhibitors, lysate ELISA, dose response, cell lysate, secondary confirmation, chemiluminescent ELISA, HEK293 lysate (AID 1058). It is filed as functional. A general note: ELISA stands for enzyme-linked immunosorbent assay.
Assay [16] is described as follows: HIV-1 Env-mediated cell fusion inhibitors, dose response, CCR5-tropic Env (AID 2279). Format: functional.
Assay [17] addresses Induced myeloid leukemia cell differentiation protein Mcl-1 (Homo sapiens, UniProt Q07820). Format: functional.
The target in assay [18] is Heat shock cognate 71 kDa protein (Homo sapiens, UniProt P11142). The experiment in a line: In Vitro Hsc70 Dose Response Fluorescence Polarization Assay. [Related pubchem assays: 1072 ]. For orientation: Polarisation of emitted light reports the rotation of a fluorescent probe.
Sequence of Heat shock cognate 71 kDa protein (P11142 whole entry): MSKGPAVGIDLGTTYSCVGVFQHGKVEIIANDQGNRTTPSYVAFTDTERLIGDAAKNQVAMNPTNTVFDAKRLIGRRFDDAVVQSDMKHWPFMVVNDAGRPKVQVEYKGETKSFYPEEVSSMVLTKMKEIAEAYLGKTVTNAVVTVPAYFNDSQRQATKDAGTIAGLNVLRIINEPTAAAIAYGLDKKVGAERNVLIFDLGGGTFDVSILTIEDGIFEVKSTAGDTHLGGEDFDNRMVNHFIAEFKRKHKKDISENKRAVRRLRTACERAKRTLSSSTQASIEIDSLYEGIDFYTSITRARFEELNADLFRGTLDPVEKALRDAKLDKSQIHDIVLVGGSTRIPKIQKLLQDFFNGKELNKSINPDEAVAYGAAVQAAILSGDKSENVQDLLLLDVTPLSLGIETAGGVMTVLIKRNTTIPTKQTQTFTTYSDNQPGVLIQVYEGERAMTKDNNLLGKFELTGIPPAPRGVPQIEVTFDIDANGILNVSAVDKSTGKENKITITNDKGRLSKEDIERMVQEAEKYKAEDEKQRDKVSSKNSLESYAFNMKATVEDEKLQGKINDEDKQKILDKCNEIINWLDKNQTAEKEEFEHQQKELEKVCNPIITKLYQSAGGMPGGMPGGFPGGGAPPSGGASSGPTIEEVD
Assay [19] has as its target T4, Dual specificity protein phosphatase 6 (Rattus norvegicus, UniProt Q64346).
T4 sequence (Q64346 whole entry): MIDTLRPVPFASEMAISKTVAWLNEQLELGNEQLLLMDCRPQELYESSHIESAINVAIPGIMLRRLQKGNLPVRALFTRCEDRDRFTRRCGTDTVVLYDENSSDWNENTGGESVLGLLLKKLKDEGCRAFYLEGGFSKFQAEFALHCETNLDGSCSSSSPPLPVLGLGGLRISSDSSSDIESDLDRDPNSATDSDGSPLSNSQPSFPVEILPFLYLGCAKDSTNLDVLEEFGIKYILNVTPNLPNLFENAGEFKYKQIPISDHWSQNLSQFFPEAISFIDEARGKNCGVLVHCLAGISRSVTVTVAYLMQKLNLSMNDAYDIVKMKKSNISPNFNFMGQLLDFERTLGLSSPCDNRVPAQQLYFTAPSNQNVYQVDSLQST
Format: functional.

The target in assay [20] is T4, Dual specificity protein phosphatase 6.
The target in assay [21] is Glyceraldehyde-3-phosphate dehydrogenase (Homo sapiens, UniProt P04406).
Sequence of Glyceraldehyde-3-phosphate dehydrogenase (P04406 whole entry): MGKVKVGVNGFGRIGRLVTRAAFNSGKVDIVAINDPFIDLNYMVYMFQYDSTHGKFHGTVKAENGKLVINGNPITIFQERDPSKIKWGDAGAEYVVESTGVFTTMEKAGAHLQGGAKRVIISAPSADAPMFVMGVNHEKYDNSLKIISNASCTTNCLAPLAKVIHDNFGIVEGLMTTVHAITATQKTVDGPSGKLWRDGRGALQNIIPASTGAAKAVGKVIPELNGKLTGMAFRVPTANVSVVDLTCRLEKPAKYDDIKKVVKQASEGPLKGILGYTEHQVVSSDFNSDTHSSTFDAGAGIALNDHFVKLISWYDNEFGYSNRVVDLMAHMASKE
Assay [22] deals with T5, Tyrosine-protein phosphatase non-receptor type 7 (Homo sapiens, UniProt P35236).
T5 sequence (P35236 whole entry): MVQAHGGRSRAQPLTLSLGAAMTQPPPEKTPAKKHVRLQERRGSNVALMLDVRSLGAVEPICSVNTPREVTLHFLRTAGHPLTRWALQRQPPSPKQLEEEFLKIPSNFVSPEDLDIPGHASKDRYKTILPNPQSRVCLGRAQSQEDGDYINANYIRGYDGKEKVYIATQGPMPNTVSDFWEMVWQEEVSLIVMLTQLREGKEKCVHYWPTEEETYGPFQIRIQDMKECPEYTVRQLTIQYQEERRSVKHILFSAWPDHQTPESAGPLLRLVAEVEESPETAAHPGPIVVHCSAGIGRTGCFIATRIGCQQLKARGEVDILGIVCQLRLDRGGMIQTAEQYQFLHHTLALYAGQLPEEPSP
It is filed as functional.

The target of assay [23] is Heat shock 70 kDa protein 1A (Homo sapiens, UniProt P0DMV8). Put plainly: Hsp70 inhibitors, SAR follow-up, biochemical, fluorescence polarization (AID 1072).
Sequence of Heat shock 70 kDa protein 1A (P0DMV8 whole entry): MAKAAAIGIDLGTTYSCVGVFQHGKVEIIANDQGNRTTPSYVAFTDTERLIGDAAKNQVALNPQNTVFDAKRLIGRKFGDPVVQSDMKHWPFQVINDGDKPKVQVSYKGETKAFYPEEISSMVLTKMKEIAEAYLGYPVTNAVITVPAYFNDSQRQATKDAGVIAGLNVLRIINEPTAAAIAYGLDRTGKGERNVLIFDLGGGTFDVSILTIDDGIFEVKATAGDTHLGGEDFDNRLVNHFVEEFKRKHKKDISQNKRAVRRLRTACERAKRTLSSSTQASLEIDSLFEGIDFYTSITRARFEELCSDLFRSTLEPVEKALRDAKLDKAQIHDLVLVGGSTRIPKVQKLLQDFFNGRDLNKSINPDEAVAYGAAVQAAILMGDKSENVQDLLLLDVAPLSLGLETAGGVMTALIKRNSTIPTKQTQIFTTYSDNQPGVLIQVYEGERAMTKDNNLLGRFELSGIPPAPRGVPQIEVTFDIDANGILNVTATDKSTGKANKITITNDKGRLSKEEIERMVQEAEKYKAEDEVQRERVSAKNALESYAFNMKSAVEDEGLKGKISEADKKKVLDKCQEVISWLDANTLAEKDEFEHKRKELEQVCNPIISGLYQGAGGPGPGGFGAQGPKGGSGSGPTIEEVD
The target of assay [24] is Cyclin-dependent kinase 5/CDK5 activator 1 (Homo sapiens, UniProt Q00535). Put plainly: CDK5/p35 kinase inhibitors, dose response, biochemical, cherry-picked samples, set 2 (AID 504545).
Sequence of Cyclin-dependent kinase 5/CDK5 activator 1 (Q00535 whole entry): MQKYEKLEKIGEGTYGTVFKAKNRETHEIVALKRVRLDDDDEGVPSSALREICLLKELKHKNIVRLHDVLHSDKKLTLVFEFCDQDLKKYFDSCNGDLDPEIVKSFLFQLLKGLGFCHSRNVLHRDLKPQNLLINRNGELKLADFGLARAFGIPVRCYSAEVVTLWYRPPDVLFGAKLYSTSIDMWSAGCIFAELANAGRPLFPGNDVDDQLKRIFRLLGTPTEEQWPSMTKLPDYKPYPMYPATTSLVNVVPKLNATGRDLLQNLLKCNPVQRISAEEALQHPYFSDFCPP
Sequence of Cyclin-dependent kinase 5/CDK5 activator 1 (Q15078 whole entry, further chain): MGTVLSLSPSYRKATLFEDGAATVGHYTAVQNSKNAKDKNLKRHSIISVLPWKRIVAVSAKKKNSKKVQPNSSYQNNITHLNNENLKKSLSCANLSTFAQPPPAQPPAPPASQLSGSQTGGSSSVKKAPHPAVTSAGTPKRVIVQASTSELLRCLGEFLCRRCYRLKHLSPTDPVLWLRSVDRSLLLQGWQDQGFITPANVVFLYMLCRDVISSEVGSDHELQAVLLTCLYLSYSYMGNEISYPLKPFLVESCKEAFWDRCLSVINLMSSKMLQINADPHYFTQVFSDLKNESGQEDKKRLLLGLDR

T3 sequence (P08659 whole entry): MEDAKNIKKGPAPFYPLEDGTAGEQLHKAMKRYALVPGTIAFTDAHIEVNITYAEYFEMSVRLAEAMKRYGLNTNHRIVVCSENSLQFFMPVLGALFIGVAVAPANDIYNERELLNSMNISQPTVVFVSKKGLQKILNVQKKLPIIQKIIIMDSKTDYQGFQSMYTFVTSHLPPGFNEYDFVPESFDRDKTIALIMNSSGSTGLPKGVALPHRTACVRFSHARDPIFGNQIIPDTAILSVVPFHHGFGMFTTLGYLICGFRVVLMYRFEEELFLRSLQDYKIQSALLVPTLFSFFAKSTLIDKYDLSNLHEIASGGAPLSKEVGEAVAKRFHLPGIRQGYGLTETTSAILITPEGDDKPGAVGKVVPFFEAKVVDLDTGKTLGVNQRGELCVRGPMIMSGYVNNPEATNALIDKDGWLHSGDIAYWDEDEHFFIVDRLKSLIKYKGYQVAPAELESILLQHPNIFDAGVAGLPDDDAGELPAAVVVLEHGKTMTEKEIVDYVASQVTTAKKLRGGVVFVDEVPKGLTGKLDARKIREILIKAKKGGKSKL
Sequence of Tumor necrosis factor (P01375 whole entry): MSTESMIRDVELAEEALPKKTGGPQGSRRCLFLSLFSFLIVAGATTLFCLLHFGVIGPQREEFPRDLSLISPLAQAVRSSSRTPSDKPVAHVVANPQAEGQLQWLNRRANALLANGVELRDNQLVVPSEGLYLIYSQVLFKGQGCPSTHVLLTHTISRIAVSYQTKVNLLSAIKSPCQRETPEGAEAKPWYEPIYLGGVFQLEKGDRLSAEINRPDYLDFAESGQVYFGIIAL
Sequence of Induced myeloid leukemia cell differentiation protein Mcl-1 (Q07820 whole entry): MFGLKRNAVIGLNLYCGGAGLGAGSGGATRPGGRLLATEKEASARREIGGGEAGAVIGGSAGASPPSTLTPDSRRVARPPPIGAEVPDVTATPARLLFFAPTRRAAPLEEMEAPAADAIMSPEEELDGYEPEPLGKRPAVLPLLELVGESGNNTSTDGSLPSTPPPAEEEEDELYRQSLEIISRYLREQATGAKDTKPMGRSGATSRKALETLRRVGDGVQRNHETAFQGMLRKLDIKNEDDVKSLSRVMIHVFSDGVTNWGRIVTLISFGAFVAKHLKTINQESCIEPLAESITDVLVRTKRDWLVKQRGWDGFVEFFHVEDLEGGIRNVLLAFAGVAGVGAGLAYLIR
Sequence of Mothers against decapentaplegic homolog 3 (P84022 whole entry, the tested form may be a part): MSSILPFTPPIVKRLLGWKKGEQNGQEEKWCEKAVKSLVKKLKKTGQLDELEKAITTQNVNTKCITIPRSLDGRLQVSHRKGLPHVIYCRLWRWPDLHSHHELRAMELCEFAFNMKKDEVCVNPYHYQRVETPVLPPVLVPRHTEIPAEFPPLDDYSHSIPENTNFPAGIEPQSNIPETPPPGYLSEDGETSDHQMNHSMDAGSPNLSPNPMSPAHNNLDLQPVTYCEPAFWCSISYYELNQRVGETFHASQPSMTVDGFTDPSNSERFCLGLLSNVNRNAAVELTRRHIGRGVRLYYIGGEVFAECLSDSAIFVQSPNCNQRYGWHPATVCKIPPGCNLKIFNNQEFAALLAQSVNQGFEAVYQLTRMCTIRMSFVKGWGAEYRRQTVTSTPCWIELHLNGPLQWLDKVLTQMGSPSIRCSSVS

As a reminder, the EC50 is the concentration at which the effect is half-maximal. Consider `CC(C)c1ccc(NC(=O)c2cc(S(=O)(=O)NCC3COc4ccccc4O3)ccc2F)cc1` (configuration not stated), for which the EC50 in assay [1] was 3.53 µM (active); in assay [2], > 500 µM (not active); in assay [3], 74.4 µM (active); in assay [4], 12.2 µM (active).
One may read the IC50 as the midpoint of a concentration-inhibition curve. Regarding `Nc1ccc2nc(-c3ccccc3)sc2c1`, in assay [5], the IC50 is 55.9 µM (inactive). The EC50 is 2.44 µM (active) in assay [6], 0.958 µM (active) in [7], > 50 µM (not active) in [8] and 23.5 µM (active) in assay [9].
For orientation: AC50 means the midpoint of the concentration-response curve, whichever way the signal moves. On to `CC(C)CCN1CCc2nc(COc3ccccc3)c3c(c2C1)COC(C)C3` (configuration not stated), for which the AC50 in assay [10] is 6.31 µM (inconclusive).
As for `Cc1ccc(S(=O)(=O)n2c(N)nc3cc(C)c(C)cc32)cc1`, the IC50 in [11] was > 5 µM (inactive); in assay [12] it was > 20 µM (inactive); in assay [13], > 20 µM (inactive); in assay [14], > 20 µM (inactive).
In the case of `Oc1cc2c(cc1C(c1ccc(Cl)cc1)N1CCOCC1)OCO2` (configuration not stated), the IC50 in assay [15] is given as 10.3 µM (not active).
Take `CC1(c2ccccc2)CC(C)(C)N2C(=O)/C(=C3\SC(=S)NC3=O)c3cccc1c32` (configuration not stated): the values for the EC50 in assay [1], in assay [3] and in assay [4] were > 150 µM (not active), 3.08 µM (active) and 0.435 µM (active), respectively. Moreover, the IC50 in [16] was 9.92 µM (active); in assay [17] it was 1.18 µM (active).
For the molecule `COc1ccc2c(c1)C1C=CCC1C(C(=O)O)N2` (configuration not stated), the IC50 in [18] was > 100 µM (not active); in [19] it was 32 µM (active); in assay [20] it was 33.5 µM (active); in assay [21], > 100 µM (not active); in assay [22], 13.2 µM (active); in [23] it was 20.6 µM (active).
Consider `Clc1cncc(Cl)c1N/N=C/c1ccncc1`, for which the AC50 in assay [24] is 52.8 µM (active).

The values above are taken from ChEMBL document CHEMBL1201862, “PubChem BioAssay data set” (2004).
